Measurements as given in patent US20160304957A1, “TREATMENT AND MODULATION OF GENE EXPRESSION AND SKIN AGING” (DSM NUTRITIONAL PRODUCTS LTD., priority 2006, published 2016).

Key:
Test in all cases: QRT-PCR gene expression in HaCaT cells with or without UVA
Type in all cases: cell-based, human
MMP-10 = test system: MMP-10
Method: (§1) HaCaT cells were obtained from Prof. Fusenig, German Cancer Research Centre, Heidelberg. […] The accuracy of cell counting was approximately 99%.
(§2) On day 3 of the experiment, cells were washed six times with Ca/Mg-free PBS containing 2% BSA, and then irradiated with light with a Hönle sun lamp Sol 500 (Dr. Hönle, Plannegg, Germany) at a dose of 270 kJ/m^2 in Ca/Mg-free PBS (2 hour exposure time at […]). The experimental schedule was chosen because the cells had optimal UVA sensitivity after 48 hours in culture. […] Confluent cultures were much less sensitive to irradiation.
(§3) After irradiation, the cells were supplied with fresh β-carotene-containing serum-free medium and kept in the incubator at 37° C., 5% CO2 until harvest of the samples. In experiments in which the half-life of ^1O2 was prolonged by D2O to enhance its effect, PBS was prepared in D2O, instead of in H2O, as it was done for the standard conditions described above. Cells were washed twice in D2O-PBS prior to irradiation in D2O-PBS. After irradiation, cells were maintained with fresh β-carotene-containing serum-free medium. Sham controls were treated in an identical manner, by placing them under the solar simulator but shielded from light.
(§4) Total RNA was isolated by using Trizol™ (Invitrogen, Basel, Switzerland) according to the instructions of the manufacturer. Random-primed cDNA was synthesized using the Superscript pre-amplification system for first strand cDNA synthesis (Invitrogen).
(§5) cDNA corresponding to 10 ng total RNA was used as template to quantify the relative RNA expression of the genes of interest by TaqMan® real time PCR.
(§6) The PCR analyses were carried out in triplicate and in a multiplex setup, using 18S rRNA as a calibrator gene. The rRNA primers were used at a final concentration of 50 nM, the probe at 100 nM. For quantification of the genes of interest, the primer concentrations were optimized for sensitivity of template detection. […] PCR reactions were carried out for 40 cycles of 95° C. for 15 seconds and 60° C. for 1 minute in an ABI7700 (Applied Biosystems, Rotkreuz, Switzerland). Regulation of gene expression was calculated as described in user bulletin #2 provided by the manufacturer. A threshold cycle (“CT”) is the first PCR cycle in which an amplification signal is detected. Expression levels are given as δCT values. The δCT value describes the level of gene expression as the average PCR cycle, in which the gene of interest was detected first (CT value), subtracted by the CT value of the calibrator gene 18S rRNA (CTgene of interest−CTcalibrating gene), 18S rRNA served as a measure for the amount of template in the reaction. Routinely, 18S rRNA was detected between PCR cycle 12 and 13 (SE=standard error) A low δCT corresponds to a high mRNA level.

MMP-3 = test system: MMP-3
Method: as §1, §2, §3, §4, §5, §6

MMP-9 = test system: MMP-9
Method: as §1, §2, §3, §4, §5, §6

MMP-1 = test system: MMP-1
Method: as §1, §2, §3, §4, §5, §6

MMP-2 = test system: MMP-2
Method: as §1, §2, §3, §4, §5, §6

[1] = β-carotene 1.5 μM, with or without UVA

For `CC1=C(/C=C/C(C)=C/C=C/C(C)=C/C=C/C=C(C)/C=C/C=C(C)/C=C/C2=C(C)CCCC2(C)C)C(C)(C)CCC1` [β-carotene, All-E-β-carotene], the “basal MMP-10 expression” value (MMP-10; unirradiated cells) was “tended to reduce”, the “UVA induction of MMP-10” value (MMP-10; β-carotene 1.5 μM, UVA alone about 3 fold) was “approx. 2.5 fold” and the “MMP-10 induction by UVA and D2O” value (MMP-10; β-carotene 0.5, 1.5, 3 μM) was “opposed MMP-10 induction by UVA and D2O in a dose-dependent fashion”. For the same molecule, the “MMP-3 induction by UVA” value (MMP-3; presence or absence of D2O) was “prevented MMP-3 induction”, the “UVA-induction of MMP-3” value (MMP-3; β-carotene 1.5 μM, UVA alone approx. 49 fold) was 27 fold and the MMP-9 expression (MMP-9; UVA/D2O experiments) was “no significant effect”. The “MMP-9 expression, tendency” value (MMP-9; irradiated and unirradiated cells) was “tended to lower expression”, the MMP-9 expression (MMP-9; [1]) was “did not influence their expression significantly” and the “basal MMP-1 RNA expression” value (MMP-1; unirradiated cells) was “tended to reduce”. The “UVA-induced MMP-1 induction” value (MMP-1; β-carotene 1.5 μM, 5 hours after UVA, UVA alone 1.3 fold) was 0.9 fold, the “UVA/D2O-induced MMP-1 induction” value (MMP-1; β-carotene 0.5, 1.5, 3 μM) was “significantly and dose-dependently reduced” and the MMP-2 expression (MMP-2; UVA/D2O experiments) was “no significant effect”. For the same molecule, the MMP-2 expression (MMP-2; [1]) was “did not influence their expression significantly”.
